ChEMBL document CHEMBL1201862, “PubChem BioAssay data set” (2004)
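Protocol summary: plate cells (96-well), add compound at 5 concentrations, incubate 48 h, interpolate endpoints linearly. GI50 = concentration required for 50% inhibition of growth.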 Active and inactive are the calls of the source. No stated cut-off is given here; in the data, active = GI50 up to about 1.1 µM and inactive = higher.

Tests used:
Test in all cases: growth of human tumour cells (NCI), 48 h
[1] = system: HCT-15
[2] = system: NCI-H460
[3] = system: LOX IMVI
[4] = system: UO-31
[5] = system: KM12
[6] = system: OVCAR-4
[7] = system: HOP-92
[8] = system: M19-MEL
[9] = system: SN12C
[10] = system: UACC-257
[11] = system: Malme-3M
[12] = system: COLO 205
[13] = system: LXFL 529
[14] = system: OVCAR-5
[15] = system: HCC 2998
[16] = system: HOP-18
[17] = system: OVCAR-8
[18] = system: SF-295
[19] = system: CAKI-1
[20] = system: HCT-116
[21] = system: HL-60
[22] = system: NCI-H226
[23] = system: SNB-19
[24] = system: SR
[25] = system: SK-MEL-2
[26] = system: DMS-273
[27] = system: HOP-62
[28] = system: M14
[29] = system: KM-20L2
[30] = system: OVCAR-3
[31] = system: SW-620
[32] = system: HT-29
[33] = system: SNB-78
[34] = system: DMS-114
[35] = system: U-251
[36] = system: IGROV-1
[37] = system: SK-MEL-5
[38] = system: ACHN
[39] = system: UACC-62
[40] = system: SK-MEL-28
[41] = system: SF-268
[42] = system: NCI-H23
[43] = system: RPMI-8226
[44] = system: K562
[45] = system: SF-539
[46] = system: SNB-75
[47] = system: EKVX
[48] = system: RXF 393
[49] = system: SK-OV-3
[50] = system: A549
[51] = system: A498
[52] = system: DLD-1
[53] = system: CCRF-CEM
[54] = system: NCI-H522
[55] = system: MOLT-4
[56] = system: 786-0

Measured: GI50

O=C(Nc1cccc(C(F)(F)F)c1)c1cc(-c2ccccc2)nc(S)n1
inactive: [2] > 100 µM | [3] > 100 µM | [4] > 100 µM | [5] > 100 µM | [6] > 100 µM | [7] > 100 µM | [8] > 100 µM | [9] > 100 µM | [10] > 100 µM | [11] > 100 µM | [12] > 100 µM | [13] > 100 µM | [14] > 100 µM | [15] > 100 µM | [16] > 100 µM | [17] > 100 µM | [18] > 100 µM | [19] > 100 µM | [20] > 100 µM | [21] > 100 µM | [22] > 100 µM | [23] > 100 µM | [24] > 100 µM | [25] > 100 µM | [26] > 100 µM | [27] > 100 µM | [28] > 100 µM | [29] > 100 µM | [30] > 100 µM | [31] > 100 µM | [32] > 100 µM
> 100 µM: [1]

CCCCCCCC(=O)OCC(C[As](=O)(O)O)OC(=O)CCCCCCC (stereo unspecified)
inactive: [33] 18.7 µM | [34] 16.4 µM | [4] 15 µM | [35] 15 µM | [6] 19.7 µM | [7] 12.7 µM | [36] 13.8 µM | [8] 15.7 µM | [9] 14.7 µM | [37] 18.1 µM | [38] 16.9 µM | [39] 13.8 µM | [10] 14.8 µM | [40] 15.7 µM | [11] 15.1 µM | [12] 14.3 µM | [41] 14.9 µM | [42] 15.2 µM | [13] 13.4 µM | [43] 17.6 µM | [15] 17.7 µM | [16] 15.8 µM | [17] 15.8 µM | [44] 20.6 µM | [18] 16.6 µM | [45] 14.1 µM | [46] 15.7 µM | [47] 18.3 µM | [20] 16.7 µM | [48] 5.01 µM | [49] 15.7 µM | [50] 23 µM | [21] 5.56 µM | [22] 22.3 µM | [51] 19.1 µM | [23] 14.8 µM | [52] 16.9 µM | [53] 6.49 µM | [54] 13.3 µM | [24] 16.6 µM | [26] 14.1 µM | [27] 20.3 µM | [28] 15 µM | [55] 16.6 µM | [29] 16.7 µM | [31] 15.6 µM | [56] 17.2 µM | [32] 17.1 µM
14.9 µM: [1]
